Numbers after ± are expanded uncertainties.
How the values were obtained:
[1] = 100 kPa, Liquid, Vibrating tube method
[2] = molar heat capacity at constant pressure; conditions: 100 kPa, Liquid, Extra sensitive DSC
[3] = xn = mol fraction of the nth substance listed; conditions: 100 kPa, Liquid, Vibrating tube method, x2 = 0
[4] = molar heat capacity at constant pressure; xn = mol fraction of the nth substance listed; conditions: 100 kPa, Liquid, Extra sensitive DSC, x2 = 0

Structure (SMILES) | mass density ([1]; 298.15 K) | mass density ([1]; 308.15 K) | mass density ([1]; 318.15 K) | mass density ([1]; 328.15 K) | molar heat capacity at constant pressure ([2]; 298.8 K) | molar heat capacity at constant pressure ([2]; 308.7 K) | molar heat capacity at constant pressure ([2]; 318.6 K) | molar heat capacity at constant pressure ([2]; 328.5 K) | mass density ([3]; 298.15 K) | mass density ([3]; 308.15 K) | mass density ([3]; 318.15 K) | mass density ([3]; 328.15 K) | molar heat capacity at constant pressure ([4]; 298.8 K) | molar heat capacity at constant pressure ([4]; 308.7 K) | molar heat capacity at constant pressure ([4]; 318.6 K) | molar heat capacity at constant pressure ([4]; 328.5 K)
Cc1ccc(C(C)C)cc1 [1-(1-methylethyl)-4-methylbenzene] | 852.99 ± 0.71 kg/m3 | 844.94 ± 0.71 kg/m3 | 836.86 ± 0.71 kg/m3 | 828.75 ± 0.71 kg/m3 | 240.9 ± 9.3 J/K/mol | 244.8 ± 9.5 J/K/mol | 249.4 ± 9.7 J/K/mol | 254.6 ± 9.9 J/K/mol | – | – | – | – | – | – | – | –
CCCO [propan-1-ol] + Cc1ccc(C(C)C)cc1 | – | – | – | – | – | – | – | – | 799.46 ± 0.71 kg/m3 | 791.36 ± 0.71 kg/m3 | 783.1 ± 0.71 kg/m3 | 774.63 ± 0.71 kg/m3 | 144.5 ± 5.6 J/K/mol | 150.9 ± 5.8 J/K/mol | 157.4 ± 6.1 J/K/mol | 164.5 ± 6.4 J/K/mol
CCCO [propan-1-ol] | 799.46 ± 0.71 kg/m3 | 791.36 ± 0.71 kg/m3 | 783.1 ± 0.71 kg/m3 | 774.63 ± 0.71 kg/m3 | 144.5 ± 5.6 J/K/mol | 150.9 ± 5.8 J/K/mol | 157.4 ± 6.1 J/K/mol | 164.5 ± 6.4 J/K/mol | – | – | – | – | – | – | – | –
